Test results reported in patent US8207142B2, “Inhibitor of DNA methylation” (priority 2001, dated 2012).

Test system: EJ6 tumors
Assay: EJ6 tumors in BALB/c nu/nu mice, tumor volume and histology
Assay type: in vivo
Experimental: EJ6 cells (5×10^5/injection) were inoculated subcutaneously into the right and left flanks of male BALB/c nu/nu mice at 4-6 weeks of age (available from Harlan, San Diego, Calif.). Zebularine treatments were initiated after macroscopic (50-200 mm 3) tumor formation (4-6 weeks later). Zebularine (500 mg/kg or 1000 mg/kg) was administered daily via intraperitoneal injection or oral gauage feeding over a period of 18 days. Control mice received 0.45% saline administered via intraperitoneal injection or oral gavage feeding over a period of 18 days. Mice (n=30) were divided into five groups (control group, 500 mg/kg intraperitoneal injection, 500 mg/kg oral, 1000 mg/kg intraperitoneal injection, and 1000 mg/kg oral). Each treatment group consisted of a minimum of five animals (at least 6 tumors per group).
Tumor volumes (TV) were measured with calipers and calculated using the following formula: tumor volume=LD^2/2 (where L is the longest diameter and D is the shortest diameter). The relative tumor volume (RTV) was calculated as: RTV=TVn/TVo, where TVn is the calculated volume at day n. Animals were sacrificed 24 hours after the last treatment. Tumors were removed, immediately fixed with neutral buffered formalin and then embedded in OCT compound for frozen sections. The frozen sections were processed and stained with hematoxylin and eosin (H&E). All histological examinations were carried out by light microscopy using a Leica DM LB microscope (Leica Microsystems, Germany).

Compound: O=c1ncccn1[C@@H]1O[C@H](CO)[C@@H](O)[C@H]1O [Zebularine, 1-β-ribofuranosyl-1,2-dihydropyrimidin-2-one]
- tumor regression (1000 mg/kg orally or intraperitoneally, daily, 18 days): tumor regression was observed
- tumor growth (relative tumor volume) vs control group (all treated groups: 500 or 1000 mg/kg daily, intraperitoneal or oral, 18 days): tumor growth appeared suppressed
- ratio of tumor cells to stroma (H&E stained tumor sections), treated versus untreated (tumors removed 24 hours after the last treatment): lower ratio of tumor cells to stroma
